ChEMBL document CHEMBL1201862, “PubChem BioAssay data set” (2004)
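A five-concentration, 48-hour dose response in 96-well plates underlies each endpoint, interpolated linearly between surrounding concentrations. The concentration for 50% growth inhibition is given as GI50.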 Activity calls are given as the source filed them. Cut-off read from the data, not from the text of the source: active = GI50 up to about 1.1 µM and inactive = higher.

How the values were obtained:
Experiment in all cases: NCI anticancer screen, dose series, 48 h
SK-MEL-28 = system: SK-MEL-28
TK-10 = system: TK-10
ACHN = system: ACHN
K562 = system: K562
HOP-18 = system: HOP-18
A549 = system: A549
SK-OV-3 = system: SK-OV-3
OVCAR-8 = system: OVCAR-8
NCI-H23 = system: NCI-H23
NCI-H460 = system: NCI-H460
HL-60 = system: HL-60
CCRF-CEM = system: CCRF-CEM
DMS-114 = system: DMS-114
COLO 205 = system: COLO 205
SF-539 = system: SF-539
MOLT-4 = system: MOLT-4
HOP-92 = system: HOP-92
EKVX = system: EKVX
RPMI-8226 = system: RPMI-8226
LOX IMVI = system: LOX IMVI
SN12C = system: SN12C
U-251 = system: U-251
KM-20L2 = system: KM-20L2
LXFL 529 = system: LXFL 529
M14 = system: M14
DMS-273 = system: DMS-273
HOP-62 = system: HOP-62
A498 = system: A498
XF498 = system: XF498
HCT-15 = system: HCT-15
RXF 393 = system: RXF 393
UO-31 = system: UO-31
HCT-116 = system: HCT-116
SW-620 = system: SW-620
RXF 631 = system: RXF 631
NCI-H522 = system: NCI-H522
SK-MEL-5 = system: SK-MEL-5
DLD-1 = system: DLD-1
SF-268 = system: SF-268

CCc1nc2ccccc2c(=O)n1/N=C(\N=N\c1ccc(Cl)cc1)c1ccc(N(C)C)cc1
GI50 (SK-MEL-28): 30.1 µM (inactive)
GI50 (TK-10): 61.9 µM (inactive)
GI50 (ACHN): 28.7 µM (inactive)
GI50 (K562): 16.7 µM (inactive)
GI50 (HOP-18): 25.5 µM (inactive)
GI50 (A549): 42.7 µM (inactive)
GI50 (SK-OV-3): 27.7 µM (inactive)
GI50 (OVCAR-8): 34.9 µM (inactive)
GI50 (NCI-H23): 22.8 µM (inactive)
GI50 (NCI-H460): 24.5 µM (inactive)
GI50 (HL-60): 20.5 µM (inactive)
GI50 (CCRF-CEM): 27.6 µM (inactive)
GI50 (DMS-114): 12.2 µM (inactive)
GI50 (COLO 205): 27.2 µM (inactive)
GI50 (SF-539): 30.3 µM (inactive)
GI50 (MOLT-4): 20.6 µM (inactive)
GI50 (HOP-92): 13.7 µM (inactive)
GI50 (EKVX): 28.1 µM (inactive)
GI50 (RPMI-8226): 17.4 µM (inactive)
GI50 (LOX IMVI): 47.5 µM (inactive)
GI50 (SN12C): 27.7 µM (inactive)
GI50 (U-251): 27.3 µM (inactive)
GI50 (KM-20L2): 23.6 µM (inactive)
GI50 (LXFL 529): 23.7 µM (inactive)
GI50 (M14): 33.3 µM (inactive)
GI50 (DMS-273): 32.3 µM (inactive)
GI50 (HOP-62): 13.3 µM (inactive)
GI50 (A498): 38.3 µM (inactive)
GI50 (XF498): 25.1 µM (inactive)
GI50 (HCT-15): 29.2 µM
GI50 (RXF 393): 56 µM (inactive)
GI50 (UO-31): 12.2 µM (inactive)
GI50 (HCT-116): 17.7 µM (inactive)
GI50 (SW-620): 45.1 µM (inactive)
GI50 (RXF 631): 67.6 µM (inactive)
GI50 (NCI-H522): 22.3 µM (inactive)
GI50 (SK-MEL-5): 21.9 µM (inactive)
GI50 (DLD-1): 30.1 µM (inactive)
GI50 (SF-268): 32.1 µM (inactive)
